Results from patent US12714680B2, “Composition for anti-aging or skin regeneration comprising Okanin” (POSCO CO., LTD, priority 2020, dated 2026).

Key:
Format in all cases: cell-based
HaCaT cells [1] = experiment: Cytotoxicity depending on the concentrations of Okanin (cell viability)
Protocol: The cytotoxicity of Okanin was measured using HaCaT cells as keratinocytes. When cells are treated with MTT tetrazolium which is a yellow water-soluble substrate, such a substrate is reduced to MTT formazan by mitochondrial enzymes, and the color changes to blue-purple. That is, since the blue-violet color appears darker as the number of living cells increases, the blue-violet absorbance at a wavelength of 540 nm reflects the concentration of living cells. Specifically, after culturing cells to fill each well of a 96-well plate, the cells were treated with Okanin at concentrations of 0, 10, 25, 50 and 100 μM, and cultured for 24 hours and 48 hours in a 5% CO2 incubator at 37° C. Thereafter, cell viability was measured using MIT reagent. A control group not treated with Okanin (0 μM) was treated with the same amount of the solvent DMSO.

HaCaT cells [2] = experiment: Wound healing assay; details: 1 μM Okanin, culture for 6 days, serum-free; vs negative control; significant difference from the 3rd day (p<0.05); FIGS. 6A, 6B
Protocol: The cell growth promoting effect of Okanin was confirmed through Wound healing assay. Specifically, after fully culturing HaCaT cells in a 12-well plate, cells on a certain area were scraped off using a yellow tip to form a wound area, changed to a serum-free medium, and treated with 1 μM of Okanin.

HaCaT cells [3] = experiment: Resistance to cell damage induced by UVB (cell viability, CCK-8); details: 1 μM Okanin, UVB 500 mJ/cm2, serum-free, negative control about 40%, p<0.05, FIG. 7
Protocol: Among the ultraviolet wavelengths, UVB wavelengths corresponding to 280 to 315 nm penetrate the epidermal layer where many keratinocytes exist to cause cell damage. […] The solvent DMSO was used as a negative control group, and the cell viability was measured using the CCK-8 method used in Experimental Example 5.

ERK = experiment: Activation (phosphorylation) of ERK by Western blotting in HaCaT cells; details: serum-free medium, FIG. 3
Protocol: (§1) It is well known that the activities of extracellular signal-regulated kinase (ERK) and protein kinase B (AKT) transmit signals necessary for cell growth and survival by the activities of an EGFR. In addition, in Experimental Example 1, it was observed that Okanin generated signals due to activation of the EGFR in the cells of the biosense system for measuring the activities of the EGFR. Accordingly, it was measured whether the activities of the EGFR were induced by Okanin to the activities of the ERK and AKT. Specifically, HaCaT cells were cultured in a serum-free medium, treated with 10 μM. of Okanin for 10 minutes, 30 minutes and 60 minutes, respectively, and, thereafter, phosphorylated and activated ERK and AKT were analyzed by Western blotting. As antibodies, a phosphorylation antibody as a marker of activated ERK and AKT, and a general antibody for measuring all of them were used, respectively.

EGFR = EGFR (Homo sapiens, UniProt P00533); experiment: EGFR activity measurement biosensor system (EGFP-SH2 fluorescence signals); details: 100 μM Okanin; cells cultured in serum-free medium 24 hours; compared to DMSO control; FIG. 1
Protocol: In addition, by using the feature that, when the activities of the EGFR continue to be maintained, the EGFR is internalized into the cell, the cell of the biosensor system that may measure the activities of the EGFR was used in the present experimentation (see Korean Laid-open Patent Publication No. 2019-0014340). […] After culturing the cells in a serum-free medium for 24 hours, the cells were treated with Okanin.

AKT = experiment: Activation (phosphorylation) of AKT by Western blotting in HaCaT cells; details: serum-free medium, FIG. 3
Protocol: as §1

c-jun = experiment: Gene expression change by real-time quantitative PCR in HaCaT cells: c-jun; details: 10 μM Okanin, 1 hour, serum-free, corrected with β-actin, FIG. 4
Description: (§2) Signaling by an EGFR induces the expression of genes important for cell growth and survival through important signaling mediator proteins such as ERK and AKT. The egr1, c-myc, c-jun and c-fos genes are regulated by the EGFR and are well known as genes that promote cell growth and survival. […] Specifically, Tri-reagent was used for mRNA extraction, cDNA was created by a reverse transcription polymerase chain reaction (RT-PCR) using a poly-A primer and a reverse transcriptase, and real-time quantitative PCR was used to measure the amount of each mRNA. The amount of each mRNA was corrected with the amount of β-actin, which is a constitutive gene.

c-fos = experiment: Gene expression change by real-time quantitative PCR in HaCaT cells: c-fos; details: 10 μM Okanin, 1 hour, serum-free, corrected with β-actin, FIG. 4
Description: as §2

c-myc = experiment: Gene expression change by real-time quantitative PCR in HaCaT cells: c-myc; details: 10 μM Okanin, 1 hour, serum-free, corrected with β-actin, FIG. 4
Description: as §2

HaCaT cells [4] = experiment: Growth and proliferation of keratinocytes (CCK-8 assay); details: 24 hours, serum-free, vs negative control (DMSO), p<0.05, FIG. 5
Protocol: Cell counting kit-8 (CCK-8) is a water-soluble tetrazolium salt reagent called WST-8 and forms orange-colored water-soluble Formazan by dehydrogenase in the mitochondria of living cells. […] After cultured for 24 hours, the cells were treated with CCK8, and the cell growth was analyzed by measuring absorbance at 450 nm.

egr1 = experiment: Gene expression change by real-time quantitative PCR in HaCaT cells: egr1; details: 10 μM Okanin, 1 hour, serum-free, corrected with β-actin, FIG. 4
Description: as §2

Chain of EGFR (P00533 25-1210, species assumed): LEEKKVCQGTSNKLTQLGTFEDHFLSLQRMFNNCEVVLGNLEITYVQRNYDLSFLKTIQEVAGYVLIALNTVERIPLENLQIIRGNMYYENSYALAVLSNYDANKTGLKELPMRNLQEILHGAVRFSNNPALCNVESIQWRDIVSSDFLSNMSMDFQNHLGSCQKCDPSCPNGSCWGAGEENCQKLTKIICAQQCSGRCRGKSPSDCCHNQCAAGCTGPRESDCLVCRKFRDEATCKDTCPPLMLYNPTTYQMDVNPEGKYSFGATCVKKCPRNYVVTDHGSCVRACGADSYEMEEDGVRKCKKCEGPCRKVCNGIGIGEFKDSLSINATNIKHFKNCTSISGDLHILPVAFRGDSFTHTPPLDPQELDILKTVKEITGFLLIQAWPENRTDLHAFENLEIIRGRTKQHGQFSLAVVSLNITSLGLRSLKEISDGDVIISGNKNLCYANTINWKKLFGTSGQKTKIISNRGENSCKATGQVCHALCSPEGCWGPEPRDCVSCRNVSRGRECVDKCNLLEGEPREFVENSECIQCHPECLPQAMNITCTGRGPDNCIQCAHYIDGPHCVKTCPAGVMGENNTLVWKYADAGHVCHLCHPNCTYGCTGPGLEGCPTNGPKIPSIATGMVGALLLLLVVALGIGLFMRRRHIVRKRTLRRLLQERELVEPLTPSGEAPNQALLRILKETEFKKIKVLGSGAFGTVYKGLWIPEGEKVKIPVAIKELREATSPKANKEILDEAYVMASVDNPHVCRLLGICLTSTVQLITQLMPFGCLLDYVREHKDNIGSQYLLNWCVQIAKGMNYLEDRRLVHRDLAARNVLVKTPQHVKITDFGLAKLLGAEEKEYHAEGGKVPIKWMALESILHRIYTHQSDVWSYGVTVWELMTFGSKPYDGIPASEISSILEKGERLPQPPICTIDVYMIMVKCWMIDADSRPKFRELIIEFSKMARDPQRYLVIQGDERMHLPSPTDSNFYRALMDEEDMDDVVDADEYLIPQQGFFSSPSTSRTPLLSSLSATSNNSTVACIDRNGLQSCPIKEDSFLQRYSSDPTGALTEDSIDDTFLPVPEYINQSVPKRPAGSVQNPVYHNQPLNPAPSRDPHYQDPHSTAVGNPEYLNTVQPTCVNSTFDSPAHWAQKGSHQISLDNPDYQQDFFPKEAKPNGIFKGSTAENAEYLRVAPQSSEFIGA

O=C(/C=C/c1ccc(O)c(O)c1)c1ccc(O)c(O)c1O [Okanin, 2′,3,3′,4,4′-pentahydroxychalcone]
cytotoxicity (HaCaT cells [1]; 25 μM, cultured 24 hours and 48 hours, FIG. 2): some cytotoxicity
cytotoxicity (HaCaT cells [1]; 50 μm, cultured 24 hours and 48 hours, FIG. 2): some cytotoxicity
cytotoxicity (HaCaT cells [1]; concentration of 10 μM or less): free of cytotoxicity
filling of the wound area (HaCaT cells [2]): more quickly filled
cells survived after UVB (HaCaT cells [3]): about 60%
induction of the activities of ERK (ERK; 10 μM Okanin for 10 minutes): sufficiently induced
time within which ERK was rapidly activated (ERK; 10 μM Okanin): ≤ 30 min
EGFR activation (fluorescence signals of biosensor cells) (EGFR): activated
induction of the activities of AKT (AKT; 10 μM Okanin for 10 minutes): sufficiently induced
time within which AKT was rapidly activated (AKT; 10 μM Okanin): ≤ 30 min
c-jun mRNA (c-jun): increased
c-fos mRNA (c-fos): increased
c-myc mRNA (c-myc): increased
growth and proliferation of cells (HaCaT cells [4]; 100 nM Okanin): significantly increased
growth and proliferation of cells (HaCaT cells [4]; 1 μM Okanin): significantly increased
growth and proliferation of cells (HaCaT cells [4]; 10 μM Okanin): significantly increased
egr1 mRNA (egr1): increased
